Results from BindingDB's records for doi:10.1016/j.ejmech.2017.04.043 (University of Illinois At Chicago, 2017).

Target: T1, Gamma-aminobutyric acid receptor subunit alpha-1/beta-2/gamma-2 (Homo sapiens, UniProt P14867+P18507+P47870)
T1 sequence (P14867 whole entry): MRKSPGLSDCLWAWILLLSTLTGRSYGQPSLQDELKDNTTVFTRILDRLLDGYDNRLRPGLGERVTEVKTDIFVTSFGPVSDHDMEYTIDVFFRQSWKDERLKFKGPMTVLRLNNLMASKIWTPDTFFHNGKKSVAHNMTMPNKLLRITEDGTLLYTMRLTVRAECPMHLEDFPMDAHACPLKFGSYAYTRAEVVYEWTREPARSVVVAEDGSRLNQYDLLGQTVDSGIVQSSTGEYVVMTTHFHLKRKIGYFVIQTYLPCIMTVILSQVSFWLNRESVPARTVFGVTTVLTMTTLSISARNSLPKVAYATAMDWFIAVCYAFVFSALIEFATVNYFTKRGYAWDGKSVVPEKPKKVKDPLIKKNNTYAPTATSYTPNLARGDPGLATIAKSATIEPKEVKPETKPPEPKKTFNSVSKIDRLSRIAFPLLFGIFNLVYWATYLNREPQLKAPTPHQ
T1 sequence (P18507 whole entry): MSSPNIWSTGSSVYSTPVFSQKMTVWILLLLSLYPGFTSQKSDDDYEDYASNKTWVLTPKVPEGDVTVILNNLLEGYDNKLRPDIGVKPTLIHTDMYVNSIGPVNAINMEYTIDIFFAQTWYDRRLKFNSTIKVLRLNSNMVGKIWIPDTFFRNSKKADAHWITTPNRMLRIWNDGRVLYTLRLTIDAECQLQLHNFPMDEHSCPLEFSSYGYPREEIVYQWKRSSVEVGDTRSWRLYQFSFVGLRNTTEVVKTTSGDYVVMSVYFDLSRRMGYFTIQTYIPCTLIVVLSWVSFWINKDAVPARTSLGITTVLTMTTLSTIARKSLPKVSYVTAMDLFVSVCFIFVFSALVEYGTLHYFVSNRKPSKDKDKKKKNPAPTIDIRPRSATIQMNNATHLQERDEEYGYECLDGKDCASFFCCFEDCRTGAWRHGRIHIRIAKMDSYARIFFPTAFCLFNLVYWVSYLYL
T1 sequence (P47870 whole entry): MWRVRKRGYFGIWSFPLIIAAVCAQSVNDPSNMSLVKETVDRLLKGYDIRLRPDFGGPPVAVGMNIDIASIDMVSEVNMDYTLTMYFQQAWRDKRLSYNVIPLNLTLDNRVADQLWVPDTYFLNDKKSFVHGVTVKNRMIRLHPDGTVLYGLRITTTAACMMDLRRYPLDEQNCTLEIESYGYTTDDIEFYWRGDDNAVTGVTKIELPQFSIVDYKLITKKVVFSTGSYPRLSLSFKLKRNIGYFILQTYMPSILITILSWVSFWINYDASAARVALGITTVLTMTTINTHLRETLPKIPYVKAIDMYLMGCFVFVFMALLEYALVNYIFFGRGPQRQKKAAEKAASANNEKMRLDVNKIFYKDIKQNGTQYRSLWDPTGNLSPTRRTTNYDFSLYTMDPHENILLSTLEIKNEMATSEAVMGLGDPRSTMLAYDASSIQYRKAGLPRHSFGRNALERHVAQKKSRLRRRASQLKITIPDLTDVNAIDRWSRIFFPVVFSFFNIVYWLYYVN
Test: Positive allosteric modulation of human GABAA receptor alpha1beta2gamma2L expressed in Xenopus laevis oocytes assessed as potentiation of GABA-induced current by measuring GABA EC50 at 1.4 uM incubated for 15 to 25 secs by two-electrode voltage clamp assay (Rvb = […])

Compound	EC50 [nM]
CC(=O)[C@H]1CC[C@H]2[C@@H]3CC[C@H]4C[C@H](O)CC[C@]4(C)[C@H]3C3(C[C@]12C)N=N3	1230
CC(=O)[C@H]1CC[C@H]2[C@@H]3CC[C@H]4C[C@H](O)CC[C@]4(C)[C@H]3[C@@H](OC(=O)c3c(F)c(F)c(N=[N+]=[N-])c(F)c3F)C[C@]12C	70
